Data: US20260337177A1, “TEAD CORE INHIBITORS FOR CANCER THERAPEUTICS” (University of Florida Research Foundation, Incorporated, priority 2023, published 2026)
pIC50: −log10 of the molar value.

Experiments:
[1] = tested on: HepG2 cells; assay: Colony formation (clonogenic) assay, HepG2; assay type: cell-based; conditions: Homo sapiens, 48 h, read-out: Colony formation, rate of inhibition, HepG2
Protocol: The ability of compound 22 to inhibit the proliferation of liver cancer cell lines Huh7 and HepG2 was further assessed using a clonogenic assay.
Huh7 or HepG2 (500 cells/well) were plated into 6 well plates (500 cells per well) and treated with 0 or 5 μM compound 22. Colonies were grown in the absence of soft agar for 2 weeks in a humidified atmosphere of 5% C02 at 37 ° C Crystal violet blue solution (Sigma) was used to stain the colonies for one hour and fixed in methanol followed by counting under a microscope. Triplicate wells were used for each cell line and three independent experiments were performed.

[2] = tested on: CTGF; assay: CTGF mRNA expression by RT-qPCR in HepG2 cells; assay type: cell-based, human; conditions: dose-dependent
Protocol: (§1) Huh7 and HepG2 liver cancer cells were seeded at 1×10^6 cells/dish and allowed to adhere overnight. The cells were then treated with indicated doses of compounds in medium for 24 hours. The cells were then harvested, and total RNA was purified using the Aurum total RNA mini kit (Bio-Rad #732-6820) according to the manufacturer's instructions. Complementary DNA was synthesized from 500 ng total RNA template by iScript reverse transcription kit (Bio-Rad #1725037) according to the manufacturer's instructions. Real-time PCR reactions utilized 60 ng cDNA and PrimePCR primers from Bio-Rad (Unique Assay ID: human GAPDH-qHsaCEP0041396, human CTGF-qHsaCEP0024255, human CYR61-qHsaCEP0024230) designed for SYBR Green gene expression analysis (Bio-Rad #1726270). All reactions were carried out in triplicate using Quant Studio 3 PCR system (Applied Biosystems). Relative gene expression level was quantified via ΔΔCt method by using GAPDH as an endogenous reference.

[3] = tested on: HepG2 cells; assay: HepG2 cell growth inhibition; assay type: cell-based; conditions: Homo sapiens, FIG. 25A
[4] = molecular target: TEAD2-YBD (Homo sapiens, UniProt Q15562); assay: Intact protein mass spectrometry, covalent modification of TEAD2-YBD; assay type: binding
Excerpt: To substantiate the covalent interaction between Compound 22 and TEAD2-YBD, intact mass spectrometry was employed to monitor the protein's mass change upon binding with the compound.
Human TEAD2-YBD (217-447) (TEAD2_HUMAN, UniProtKB Q15562) was expressed and purified as previously described.^79 To eliminate endogenous palmitoylation, Cys380Ser mutant (TEAD2-C380S) was generated and purified using the same protocol. [00392]hTEAD2 was expressed, purified, and deacylated as reported.^52 Briefly, the yap-binding domain (YBD) of […] was cloned in pET28a vector with the N terminal 6x His tag. The recombinant protein was induced at 16 ° C using 0.2 mM isopropyl bD-1-thiogalactopyranoside (IPTG) for 10 h for overexpression in Escherichia coli strain BL2 (DE3) CodonPlus competent cells (Invitrogen). Then cells were harvested, followed by lysis and the supernatant was loaded onto the HisTrap FF column (GE Healthcare). The hTEAD4-YBD was eluted with elution buffer (50 mM Hepes 8.0, 300 mM NaCl, 10% Glycerol, 1 mM TCEP, 125 mM imidazole). To eliminate the endogenous fatty acid, the protein was incubated with 0.2 mM hydroxylamine for 2 h and further purified through gel filtration chromatography in the final buffer (25 mM Hepes pH 8.0, 100 mM NaCl, 1 mM TCEP, and 5% glycerol). Collected fractions were concentrated to 5 mg/mL and flash frozen for further use. […]

[5] = tested on: CYR61; assay: CYR61 mRNA expression by RT-qPCR in Huh7 cells; assay type: cell-based, human; conditions: dose-dependent
Protocol: as §1

[6] = tested on: HepG2 cells; assay: Apoptosis by Annexin V/PI flow cytometry, HepG2; assay type: cell-based, human; conditions: 10 μM; 48 h
Protocol: In order to gain deeper insights into the underlying anticancer mechanism of compound 22, experiments were performed to validate whether the induction of G1 phase cells by compound 22 was linked to apoptosis. To achieve this, the cells treated with compound 22 were subjected to PI and FITC-annexin V staining to detect apoptotic cells. […] The proportions of total apoptosis including the early stage apoptosis and the later stage of apoptosis were 66.8%, and 83.5%, respectively, at concentrations of 5 and 10 μM. This trend was similarly observed in the case of HepG2 cells. […] The impact of compound 22 on inducing cell apoptosis was less pronounced in HepG2 cells compared to Huh7 cells, aligning with the outcomes of the cell cycle analysis, providing further coherence to the observed effects of compound 22 on these cell lines.
Apoptosis was detected using an Annexin V-FITC apoptosis detection kit (Thermo Fisher Scientific) following the manufacturer’ instructions. Briefly, about 50000 cells were suspended in 500 μl of binding buffer. The cells were incubated with 5 μl FITC-conjugated Annexin V for 15 minutes and incubated with 5 μl propidium Iodide staining solution for 15 minutes in darkness at room temperature. Cell apoptosis was then analyzed by flow cytometry using a FACSCalibur flow cytometer (Becton Dickinson, San Jose, CA).

TEAD2-YBD, sequence (Q15562 217-447): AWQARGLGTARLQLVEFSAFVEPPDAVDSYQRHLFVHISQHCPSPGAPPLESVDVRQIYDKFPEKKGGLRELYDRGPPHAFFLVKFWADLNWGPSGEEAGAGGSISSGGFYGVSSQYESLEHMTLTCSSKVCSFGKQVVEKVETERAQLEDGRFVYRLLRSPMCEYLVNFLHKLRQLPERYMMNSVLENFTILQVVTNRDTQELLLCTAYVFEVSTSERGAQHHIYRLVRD

O=C(CCl)c1c[nH]c2cc(Cl)c(OCc3cccc(C(F)(F)F)c3)cc12 [Compound 22, 2-chloro-1-(6-chloro-5-((3-(trifluoromethyl)benzyl)oxy)-1H-indol-3-yl)ethan-1-one]
inhibition at 5 µM [1]: 59.5%
CTGF mRNA expression, HepG2 [2]: significantly inhibited
pIC50 [3]: 5.62
Labeling of TEAD2-YBD ([4]; 15 hours at room temperature): completely labeled with a single molecule
Intact mass shift of TEAD2-YBD ([4]; excess compound, covalent complex, room temperature): 365.5581 Da
CYR61 mRNA expression, Huh7 [5]: significantly inhibited
Maximum apoptotic rate (early+late apoptotic), HepG2 [6]: 69.0%
